Data reported in US20130178413A1, “HCV NS3 PROTEASE INHIBITORS” (priority 2010, published 2013).
Like-named read-outs stand apart in the source and are kept apart here.

Assays:
[1] = target: NS3/4A protease gt 3a (Hepatitis C virus genotype 3a, UniProt Q81258); assay: HCV NS3 protease time-resolved fluorescence (TRF) assay, NS3/4A inhibitory activity (Ki), gt 3a; assay type: biochemical; conditions: genotype 3a NS3/4A; read-out: Enzyme Activity gt 3a Ki
Description: (§1) The HCV NS3 protease inhibitory activity of the present compounds may be tested using assays known in the art. One such assay is HCV NS3 protease time-resolved fluorescence (TRF) assay as described below and in International Patent Application Publication WO2006/102087. Other examples of such assays are described in e.g., International Patent Application Publication WO2005/046712. HCV NS3 protease inhibitors, such as those described herein have a Ki less than 50 μM, such as less than 10 μM, and less than 100 nM. Ki is determined by an NS3 protease assay. The assay is performed in a final volume of 100 μl in assay buffer containing 50 mM HEPES, pH 7.5, 150 mM NaCl, 15% glycerol, 0.15% TRITON X-100, 10 mM DTT, and 0.1% PEG 8000. NS3 protease is pre-incubated with various concentrations of inhibitors in DMSO for 30 minutes. The reaction is initiated by adding the TRF peptide substrate (final concentration 100 nM). NS3 mediated hydrolysis of the substrate is quenched after 1 hour at room temperature with 100 μl of 500 mM MES, pH 5.5. Product fluorescence is detected using either a VICTOR V2 or FUSION fluorophotometer (Perkin Elmer Life and Analytical Sciences) with excitation at 340 nm and emission at 615 nm with a 400 μs delay. Testing concentrations of different enzyme forms are selected to result in a signal to background ratio (S/B) of 10-30. IC50 values are derived using a standard four-parameter fit to the data. Ki values are derived from IC50 values using the following formula,
(§2) IC50=Ki(1+[S]/KM), Eqn (1),
(§3) where [S] is the concentration of substrate peptide in the reaction and KM is the Michaelis constant. See P. Gallinari et al., 38 BIOCHEM. 5620-32 (1999); P. Gallinari et al., 72 J. VIROL. 6758-69 (1998); M. Taliani et al., 240 ANAL. BIOCHEM. 60-67 (1996).
(§4) One such assay is HCV NS3 protease time-resolved fluorescence (TRF) assay as described below and in Mao et al., Anal Biochem. 373:1-8, 2008 and International Patent Application Publication WO 2006/102087. A NS3 protease assay can be performed, for example, in a final volume of 100 μl assay buffer containing 50 mM HEPES, pH 7.5, 150 mM NaCl, 15% glycerol, 0.15% TRITON X-100, 10 mM DTT, and 0.1% PEG 8000. NS3 and NS4A protease is pre-incubated with various concentrations of inhibitors in DMSO for 30 minutes. The reaction is initiated by adding the TRF peptide substrate (final concentration 100 nM). NS3 mediated hydrolysis of the substrate is quenched after 1 hour at room temperature with 100 μl of 500 mM MES, pH 5.5. Product fluorescence is detected using either a VICTOR V2 or FUSION fluorophotometer (Perkin Elmer Life and Analytical Sciences) with excitation at 340 nm and emission at 615 nm with a 400 μs delay. Testing concentrations of different enzyme forms are selected to result in a signal to background ratio (S/B) of 10-30. IC50 values are derived using a standard four-parameter fit to the data. Ki values are derived from IC50 values using the following formula,
as §3, with “(1996); Mao et al., Analytical Biochemistry 373: 1-8, 2008. Measuring Compound Inhibitory Potency (Replicon EC50 (nM))” for “(1996).”

[2] = system: gt 1b Replicon; assay: HCV replicon assay, compound inhibitory potency (Replicon EC50); assay type: cell-based; conditions: Hepatitis C virus, GT1B
Description: Measurement of inhibition by compounds was performed using the HCV replicon system. Several different replicons encoding different HCV genotypes or mutations were used. In addition, potency measurements were made using different formats of the replicon assay, including different ways of measurements and different plating formats. See Jan M. Vrolijk et al., A replicons-based bioassay for the measurement of interferons in patients with chronic hepatitis C, 110 J. VIROLOGICAL METHODS 201 (2003); Steven S. Carroll et al., Inhibition of Hepatitis C Virus RNA Replication by 2′-Modified Nucleoside Analogs, 278(14) J. BIOLOGICAL CHEMISTRY 11979 (2003). However, the underlying principles are common to all of these determinations, and are outlined below.
Stable neomycin phosphotransferase encoding replicon-harboring cell lines were used, so all cell lines were maintained under G418 selection prior to the assay. In some cases the cell lines encoded a luciferase:Neor fusion and could be assayed either directly by determination of RNA copy number, or indirectly through measurement of the luciferase activity.
To initiate an assay, replicon cells were plated in the presence of a dilution series of test compound in the absence of G418. Typically, the assays were performed in a 96-well plate format for manual operation, or a 384 well plate in an automated assay. Replicon cells and compound were incubated for 24-48 hours, depending on the assay. At the end of the assay, cells are washed free of media and compound and then lysed. For direct quantitation, RNA levels were measured by ^32P-probe hybridization and protection, or in a TAQMAN based assay and normalized to cellular cyclophilin A RNA levels. In some cases, luciferase activity was measured using a conventional luciferase assay. In all cases EC50 determinations were calculated as a percent of a DMSO control by fitting the data to a four parameter fit function.

[3] = target: NS3/4A protease gt 1b (Hepatitis C virus genotype 1b, UniProt P26663); assay: HCV NS3 protease time-resolved fluorescence (TRF) assay, NS3/4A inhibitory activity (Ki), gt 1b; assay type: biochemical; conditions: genotype 1b NS3/4A; read-out: Enzyme Activity gt 1b Ki
Description: as §1, §2, §3, §4
as §3, with “(1996); Mao et al., Analytical Biochemistry 373: 1-8, 2008. Measuring Compound Inhibitory Potency (Replicon EC50 (nM))” for “(1996).”

[4] = target: NS3/4A protease gt 1b A156V (Hepatitis C virus genotype 1b, UniProt P26663, A1182V); assay: HCV NS3 protease time-resolved fluorescence (TRF) assay, NS3/4A inhibitory activity (Ki), gt 1b A156V mutant; assay type: biochemical, hepatitis C virus (HCV)
Description: as §1, §2, §3, §4
as §3, with “(1996); Mao et al., Analytical Biochemistry 373: 1-8, 2008. Measuring Compound Inhibitory Potency (Replicon EC50 (nM))” for “(1996).”

[5] = 10% Fetal Bovine Serum, read-out: gt 1b Replicon EC50 10% FBS
[6] = 50% Normal Human Serum, read-out: gt 1b Replicon EC50 50% NHS

`C=C[C@@H]1C[C@]1(NC(=O)[C@@H]1C[C@@H]2CN1C(=O)[C@H](C(C)(C)C)NC(=O)O[C@]1(C)C[C@H]1CCCCCc1cccc3c1CN(C3)C(=O)O2)C(=O)NS(=O)(=O)C1CC1` [Example I-6, (1aR,5S,8S,10R,23aR)-5-tert-butyl-N-{(1R,2S)-1-[(cyclopropylsulfonyl)carbamoyl]-2-ethenylcyclopropyl}-1a-methyl-3,6,12-trioxo-1a,3,4,5,6,9,10, 14,19,20,21,22,23,23a-tetradecahydro-1H,8H-7,10:13,15-dimethano cyclopropa [n][4,13,2,8,11] benzodioxatriaza cyclodocosine-8(12H)-carboxamide] was tested, and the Ki [1] was 2.9 nM, the EC50 [2, 5] was 3 nM and the EC50 [2, 6] was 54 nM. It also gave a Ki [3] of 0.02 nM and a Ki [4] of 0.3 nM.
Work on `C=C[C@@H]1C[C@]1(NC(=O)[C@@H]1C[C@@H]2CN1C(=O)[C@H](C1CCCC1)NC(=O)O[C@]1(C)C[C@H]1CCCCCn1c(nc3cc(C)ccc3c1=O)O2)C(=O)NS(=O)(=O)C1CC1` [Example I-27, (1aR,5S,8S,10R,23aR)-5-cyclopentyl-N-{(1R,2S)-1-[(cyclopropylsulfonyl)carbamoyl]-2-ethenylcyclopropyl}-1a,14-dimethyl-3,6,17-trioxo-1,1a,3,4,5,6,9, 10,19,22,21,22,23,23a-tetradecahydro-8H,17H-7,10-methanocyclopropa[18, 19][1,10,3,6,12]dioxatri azacyclononadecino [11,12-b]quinazoline-8-carboxamide] yielded a Ki [1] of 2.8 nM, an EC50 [2, 5] of 2 nM and an EC50 [2, 6] of 6 nM. For the same compound, the Ki [3] was 0.04 nM and the Ki [4] was 4.1 nM.
Work on `C=C[C@@H]1C[C@]1(NC(=O)[C@@H]1C[C@@H]2CN1C(=O)[C@H](C1CCCC1)NC(=O)O[C@]1(C)CCC[C@H]1CCCCCc1c(nc3ccccc3c1O)O2)C(=O)NS(=O)(=O)C1CC1` [Example I-16, (3aR,7S,10S,12R,24aR)-7-cyclopentyl-N-{(1R,2S)-1-[(cyclopropylsulfonyl)carbamoyl]-2-ethenylcyclopropyl}-19-hydroxy-3a-methyl-5,8-dioxo-1,2,3,3a,5,6,7,8,11,12,20,21,22,23,24, 24a-hexadecahydro-10H-9,12-methano cyclopenta[18,19][1,10,3,6]dioxadiazacyclo nonadecino[11,12-b]quinoline-10-carboxamide] yielded a Ki [1] of 1.4 nM, an EC50 [2, 5] of 9 nM and an EC50 [2, 6] of 27 nM. It also gave a Ki [3] of 0.02 nM and a Ki [4] of 2.4 nM.
In the case of `C=C[C@@H]1C[C@]1(NC(=O)[C@@H]1C[C@@H]2CN1C(=O)[C@H](C1CCCC1)NC(=O)O[C@]1(C)C[C@H]1CC/C=C/Cn1c(nc3cc(Cl)ccc3c1=O)O2)C(=O)NS(=O)(=O)C1CC1` [Example I-26, (1aR,5S,8S,10R,20E,23aR)-14-chloro-5-cyclopentyl-N-{(1R,2S)-1-[(cyclopropylsulfonyl)carbamoyl]-2-ethenylcyclopropyl}-1a-methyl-3,6,17-trioxo-1,1a,3,4,5,6,9, 10,19,22,23,23a-dodecahydro-8H,17H-7,10-methano cyclopropa[18,19][1,10,3,6,12]dioxatriaza cyclononadecino[11,12-b]quinazoline-8-carboxamide], the Ki [1] is reported as 0.8 nM, the EC50 [2, 5] is reported as 3 nM and the EC50 [2, 6] is reported as 13 nM. For the same compound, the Ki [3] was 0.02 nM and the Ki [4] was 1.6 nM.
With `C=C[C@@H]1C[C@]1(NC(=O)[C@@H]1C[C@@H]2CN1C(=O)[C@H](C(C)(C)C)NC(=O)O[C@]1(C)C[C@H]1CC/C=C/c1cccc3c1CN(C3)C(=O)O2)C(=O)NS(=O)(=O)C1CC1` [Example I-15, (1aR,5S,8S,10R,19E,22aR)-5-tert-butyl-N-{(1R,2S)-1-[(cyclopropylsulfonyl)carbamoyl]-2-ethenylcyclopropyl}-1a-methyl-3,6,12-trioxo-1,1a,3,4,5,6,9, 10,14,21,22,22a-dodecahydro-8H-7,10: 13,15-dimethanocyclo propa[n][4,13,2,8,11] benzodioxatriazacyclo henicosine-8(12H)-carboxamide] the Ki [1] was 93.5 nM, the Ki [3] was 0.09 nM and the Ki [4] was 8.9 nM.
